In patent publication US8921376B2, “Pyrrolopyridines useful as inhibitors of protein kinase” (Vertex Pharmaceuticals Incorporated, priority 2005, dated 2014):

What was measured:
Type in all cases: biochemical
ROCK I = ROCK I (Homo sapiens, UniProt Q13464); experiment: ROCK-I inhibition assay (radioactive enzyme assay, MBP substrate)
Summary of the method: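 Human ROCK at 5 nM phosphorylated 27 μM myelin basic protein with 13 μM [γ-33P]ATP (final) in HEPES pH 7.5, MgCl2, NaCl, DTT and 1.5% DMSO. Reactions ran 2 h at room temperature before TCA quench and filter-plate scintillation counting. After background subtraction, data were fit to give Ki(app).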

JAK2 = JAK2 (Homo sapiens, UniProt O60674); experiment: JAK2 inhibition assay (as Example 3 with JAK-2 enzyme)
Summary of the method: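 In HEPES pH 7.4 buffer with 10 mM MgCl2, 1 mM DTT, 25 mM NaCl and 0.01% BSA, JAK2 enzyme phosphorylated poly(Glu)4Tyr (final 15 μM) using 33P-ATP (final 12 μM) for 20 min at room temperature (25 °C). Reactions stopped with TCA; incorporated 33P measured by scintillation after filtration.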

JAK3 = molecular target: T1, JAK3 (Homo sapiens, UniProt P52333); experiment: JAK3 inhibition assay (33P incorporation into poly(Glu)4Tyr)
T1 sequence (P52333 1-1124): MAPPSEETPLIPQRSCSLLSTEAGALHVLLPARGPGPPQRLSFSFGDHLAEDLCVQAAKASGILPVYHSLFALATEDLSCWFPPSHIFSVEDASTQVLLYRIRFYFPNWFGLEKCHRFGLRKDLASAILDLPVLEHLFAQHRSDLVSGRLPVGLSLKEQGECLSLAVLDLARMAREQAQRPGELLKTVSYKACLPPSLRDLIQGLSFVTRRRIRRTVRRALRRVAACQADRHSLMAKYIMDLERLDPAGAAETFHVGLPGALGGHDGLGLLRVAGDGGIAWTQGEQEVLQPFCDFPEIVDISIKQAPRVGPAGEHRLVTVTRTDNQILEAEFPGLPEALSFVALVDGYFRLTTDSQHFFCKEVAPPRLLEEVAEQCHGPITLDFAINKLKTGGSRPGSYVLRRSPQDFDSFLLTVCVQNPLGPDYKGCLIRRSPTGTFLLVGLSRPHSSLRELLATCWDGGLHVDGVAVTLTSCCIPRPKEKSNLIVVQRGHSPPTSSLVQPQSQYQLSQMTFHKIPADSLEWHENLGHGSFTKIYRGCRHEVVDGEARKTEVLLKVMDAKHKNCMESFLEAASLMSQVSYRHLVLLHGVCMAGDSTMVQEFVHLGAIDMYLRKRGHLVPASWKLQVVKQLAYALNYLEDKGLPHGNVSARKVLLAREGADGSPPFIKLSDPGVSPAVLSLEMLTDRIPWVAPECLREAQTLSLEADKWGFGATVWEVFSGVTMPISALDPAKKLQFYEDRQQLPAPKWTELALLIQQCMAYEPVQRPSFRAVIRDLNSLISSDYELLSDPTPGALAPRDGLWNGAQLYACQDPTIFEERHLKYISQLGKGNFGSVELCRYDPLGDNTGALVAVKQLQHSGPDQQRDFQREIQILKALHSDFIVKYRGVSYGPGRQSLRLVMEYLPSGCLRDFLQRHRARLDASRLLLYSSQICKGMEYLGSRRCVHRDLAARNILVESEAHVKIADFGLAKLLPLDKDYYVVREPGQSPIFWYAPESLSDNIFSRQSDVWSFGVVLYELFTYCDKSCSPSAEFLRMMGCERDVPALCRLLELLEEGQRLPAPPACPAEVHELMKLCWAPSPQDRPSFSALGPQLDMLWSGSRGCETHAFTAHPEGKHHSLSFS
Summary of the method: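 After TCA quench and filter harvest, scintillation counting of 33P measured phosphorylation of poly(Glu)4Tyr (1 μM) by 1 nM JAK3. The 20-min, 25° C. reaction contained 5 μM ATP (200 μCi/μmole) in pH 7.4 HEPES buffer with 10 mM MgCl2.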

[1] = enzyme inhibition, Ki(app), Table 5
[2] = Table 6, enzyme inhibition data (Ki)

JAK2, sequence (O60674 whole entry): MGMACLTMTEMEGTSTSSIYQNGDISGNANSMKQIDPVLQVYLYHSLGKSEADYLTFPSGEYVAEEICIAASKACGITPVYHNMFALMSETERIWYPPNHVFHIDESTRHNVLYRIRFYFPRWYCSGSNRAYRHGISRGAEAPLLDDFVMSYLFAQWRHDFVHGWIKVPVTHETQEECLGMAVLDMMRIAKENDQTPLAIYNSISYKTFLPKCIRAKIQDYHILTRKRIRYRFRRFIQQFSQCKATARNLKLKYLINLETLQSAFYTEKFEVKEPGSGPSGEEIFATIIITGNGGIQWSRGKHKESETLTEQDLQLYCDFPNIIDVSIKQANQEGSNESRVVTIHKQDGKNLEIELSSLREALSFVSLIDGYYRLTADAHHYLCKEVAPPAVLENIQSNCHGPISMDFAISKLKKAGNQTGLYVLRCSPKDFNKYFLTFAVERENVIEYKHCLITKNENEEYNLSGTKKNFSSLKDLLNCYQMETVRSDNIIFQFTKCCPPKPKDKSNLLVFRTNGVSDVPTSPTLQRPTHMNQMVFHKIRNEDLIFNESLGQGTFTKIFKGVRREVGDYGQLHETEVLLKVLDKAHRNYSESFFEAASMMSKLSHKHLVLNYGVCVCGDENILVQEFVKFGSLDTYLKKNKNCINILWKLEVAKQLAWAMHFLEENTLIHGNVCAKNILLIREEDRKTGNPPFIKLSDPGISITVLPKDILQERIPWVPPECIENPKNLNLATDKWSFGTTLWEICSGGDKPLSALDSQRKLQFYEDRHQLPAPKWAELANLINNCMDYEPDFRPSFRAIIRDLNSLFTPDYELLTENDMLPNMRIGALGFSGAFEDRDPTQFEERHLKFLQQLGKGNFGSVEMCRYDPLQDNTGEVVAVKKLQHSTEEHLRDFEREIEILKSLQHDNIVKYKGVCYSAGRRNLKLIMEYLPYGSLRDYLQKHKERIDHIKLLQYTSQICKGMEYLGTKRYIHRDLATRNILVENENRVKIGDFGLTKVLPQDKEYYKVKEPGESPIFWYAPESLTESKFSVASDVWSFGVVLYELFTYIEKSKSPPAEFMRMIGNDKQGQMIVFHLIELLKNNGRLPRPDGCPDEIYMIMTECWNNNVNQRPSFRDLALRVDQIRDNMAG
ROCK I, sequence (Q13464 whole entry): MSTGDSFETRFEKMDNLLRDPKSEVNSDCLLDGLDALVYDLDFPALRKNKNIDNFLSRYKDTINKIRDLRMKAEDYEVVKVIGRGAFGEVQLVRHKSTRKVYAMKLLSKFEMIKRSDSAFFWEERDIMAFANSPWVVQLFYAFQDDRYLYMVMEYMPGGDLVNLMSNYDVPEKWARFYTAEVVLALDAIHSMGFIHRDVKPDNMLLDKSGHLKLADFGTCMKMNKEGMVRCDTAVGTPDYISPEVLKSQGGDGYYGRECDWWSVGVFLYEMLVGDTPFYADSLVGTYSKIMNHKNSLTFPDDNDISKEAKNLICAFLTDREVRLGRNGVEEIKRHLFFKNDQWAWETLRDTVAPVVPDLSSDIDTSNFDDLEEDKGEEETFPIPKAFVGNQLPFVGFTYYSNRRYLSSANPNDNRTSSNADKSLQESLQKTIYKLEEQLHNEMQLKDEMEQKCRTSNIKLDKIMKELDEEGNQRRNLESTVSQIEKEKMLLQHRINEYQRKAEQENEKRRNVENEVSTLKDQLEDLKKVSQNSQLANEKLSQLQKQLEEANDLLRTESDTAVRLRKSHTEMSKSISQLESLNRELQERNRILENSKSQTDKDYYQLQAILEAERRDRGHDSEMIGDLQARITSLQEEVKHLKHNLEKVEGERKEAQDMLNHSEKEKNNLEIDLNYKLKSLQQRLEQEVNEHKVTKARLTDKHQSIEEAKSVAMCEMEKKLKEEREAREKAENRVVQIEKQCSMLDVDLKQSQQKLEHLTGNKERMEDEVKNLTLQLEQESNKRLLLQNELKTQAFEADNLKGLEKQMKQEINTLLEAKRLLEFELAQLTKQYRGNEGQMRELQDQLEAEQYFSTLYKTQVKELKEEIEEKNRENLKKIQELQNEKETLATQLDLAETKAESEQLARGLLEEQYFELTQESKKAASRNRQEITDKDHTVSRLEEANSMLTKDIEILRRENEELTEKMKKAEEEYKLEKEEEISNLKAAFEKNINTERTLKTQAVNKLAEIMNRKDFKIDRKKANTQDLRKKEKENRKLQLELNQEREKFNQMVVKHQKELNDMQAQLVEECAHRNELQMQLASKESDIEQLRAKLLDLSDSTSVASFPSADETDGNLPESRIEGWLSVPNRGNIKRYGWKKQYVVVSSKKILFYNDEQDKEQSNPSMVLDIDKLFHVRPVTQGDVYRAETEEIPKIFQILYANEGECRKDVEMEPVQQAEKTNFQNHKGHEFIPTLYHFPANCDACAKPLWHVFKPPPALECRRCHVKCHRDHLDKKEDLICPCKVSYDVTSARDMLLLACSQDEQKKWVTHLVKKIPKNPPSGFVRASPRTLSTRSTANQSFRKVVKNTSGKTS

| Compound | Ki (ROCK I; [1]) [nM] | Ki (JAK2; enzyme inhibition, Table 5) [nM] | Ki (JAK3; enzyme inhibition, Table 5) [nM] | Ki (ROCK I; [2]) [nM] | Ki (JAK2; [2]) [nM] | Ki (JAK3; [2]) [nM] |
| --- | --- | --- | --- | --- | --- | --- |
| C=C(c1c(Cl)cnc2[nH]ccc12)C1CCCC1 [compound 67] | 500 to 5000 | < 500 | < 500 |  |  |  |
| CCCOC(=O)N1CC[C@@H](Nc2c(Cl)cnc3[nH]ccc23)C1 [compound 171] |  |  |  | 500 to 5000 | < 500 | < 500 |
| C#CCN(C)C(=O)c1ccc(-c2ccnc3[nH]ccc23)s1 [compound 323] |  |  |  | < 500 | < 500 | < 500 |
| N#CCC(=O)N1CCCC(Nc2c(Cl)cnc3[nH]ccc23)C1 (stereo not drawn) [compound 188] |  |  |  | 500 to 5000 | < 500 | < 500 |
| N#CCCN(Cc1cccnc1)C(=O)c1cc(-c2c(Cl)cnc3[nH]ccc23)c[nH]1 [compound 331] |  |  |  | 500 to 5000 | < 500 | < 500 |
| O=C(CC(F)(F)F)N1CCCC(Nc2c(Cl)cnc3[nH]ccc23)C1 (stereo not drawn) [compound 186] |  |  |  | 500 to 5000 | < 500 | < 500 |
| CCOC(=O)[C@@H]1[C@@H](C)CCN1C(=O)c1csc(-c2ccnc3[nH]ccc23)n1 [compound 422] |  |  |  | 500 to 5000 | 500 to 5000 | 500 to 5000 |
| CCCN(CCC)C(=O)c1ccc(-c2ccnc3[nH]ccc23)s1 [compound 325] |  |  |  | < 500 | < 500 | < 500 |
| CC1CCCCC1Nc1c(Cl)cnc2[nH]ccc12 (stereo not drawn) [compound 153] |  |  |  | 500 to 5000 | < 500 | < 500 |
| c1cc(-c2ccoc2)c2cc[nH]c2n1 [compound 133, 4-Furan-3-yl-1H-pyrrolo[2,3-b]pyridine] | < 500 | < 500 | 500 to 5000 |  |  |  |
| CN(CC(O)c1ccccc1)c1cccc(-c2ccnc3[nH]ccc23)n1 (stereo not drawn) [compound 55, 2-(N-(6-(1H-pyrrolo[2,3-b]pyridin-4-yl)pyridin-2-yl)-N-methylamino)1-phenylethanol] | < 500 | < 500 | 500 to 5000 |  |  |  |
| O=C(NCCC(F)(F)F)c1ccccc1-c1ccnc2[nH]ccc12 [compound 254] |  |  |  | > 4000 | > 5000 | > 5000 |
| CCNC(=O)c1cc(-c2c(Cl)cnc3[nH]ccc23)c[nH]1 [compound 278] |  |  |  | > 4000 | < 500 | < 500 |
| CNC(=O)c1cc(-c2c(Cl)cnc3[nH]ccc23)c[nH]1 [compound 277] |  |  |  | 500 to 5000 | < 500 | < 500 |
| Cc1n[nH]c(C)c1-c1ccnc2[nH]ccc12 [compound 124, 4-(3,5-Dimethyl-1H-pyrazol-4-yl)-1H-pyrrolo[2,3-b]pyridine] | 500 to 5000 | > 5000 | 500 to 5000 |  |  |  |
| O=C(c1cc(-c2ccnc3[nH]ccc23)c[nH]1)N1CCC(O)C1 (stereo not drawn) [compound 377] |  |  |  | < 500 | 500 to 5000 | 500 to 5000 |
| CCN(Cc1ccccc1)C(=O)c1csc(-c2ccnc3[nH]ccc23)n1 [compound 404] |  |  |  | < 500 | < 500 | < 500 |
| CCC(=O)N1CCCC(Nc2c(Cl)cnc3[nH]ccc23)C1 (stereo not drawn) [compound 175] |  |  |  | > 4000 | < 500 | < 500 |
| Oc1cccc(-c2ccnc3[nH]ccc23)c1 [compound 105, 3-(1H-Pyrrolo[2,3-b]pyridin-4-yl)-phenol] | < 500 | < 500 | < 500 |  |  |  |
| CN(CCc1ccccn1)C(=O)c1cc(-c2c(Cl)cnc3[nH]ccc23)c[nH]1 [compound 351] |  |  |  | > 4000 | < 500 | < 500 |
| COC(=O)c1ccccc1-c1ccnc2[nH]ccc12 [compound 117] | 500 to 5000 | > 5000 | > 5000 |  |  |  |
| CC(=O)Nc1ccc(-c2ccnc3[nH]ccc23)cc1 [compound 43, N-[4-(1H-Pyrrolo[2,3-b]pyridin-4-yl)-phenyl]-acetamide] | < 500 | < 500 | < 500 |  |  |  |
| O=C(Cc1nc(-c2ccnc3[nH]ccc23)ncc1F)NCC(F)(F)F [compound 266] |  |  |  | 500 to 5000 | < 500 | 500 to 5000 |
| Cn1cc(-c2ccnc3[nH]ccc23)cn1 [compound 111, 4-(1-Methyl-1H-pyrazol-4-yl)-1H-pyrrolo[2,3-b]pyridine] | < 500 | < 500 | < 500 |  |  |  |
| O=C(CC1CCCC1)Nc1nc(-c2ccnc3[nH]ccc23)cs1 [compound 379] |  |  |  | < 500 | < 500 | < 500 |
| Cc1ccccc1-c1ccnc2[nH]ccc12 [compound 219] |  |  |  | 500 to 5000 | > 5000 | 500 to 5000 |
| CCC(=O)N1CC[C@@H](Nc2c(Cl)cnc3[nH]ccc23)C1 [compound 176] |  |  |  | 500 to 5000 | < 500 | < 500 |
| c1ncc(-c2ccnc3[nH]ccc23)cn1 [compound 104, 4-Pyrimidin-5-yl-1H-pyrrolo[2,3-b]pyridine] | 500 to 5000 | 500 to 5000 | 500 to 5000 |  |  |  |
| COc1ccc(Cl)cc1-c1ccnc2[nH]ccc12 [compound 235] |  |  |  | 500 to 5000 | 500 to 5000 | 500 to 5000 |
| CC(=O)Nc1ccccc1-c1c(Cl)cnc2[nH]ccc12 [compound 128] | 500 to 5000 | > 5000 | > 5000 |  |  |  |
